Source: ChEMBL document CHEMBL4043239, “Discovery and optimization of oxadiazole-based FLAP inhibitors” (Bioorg Med Chem Lett, 2017)
In brackets after ≈: the same amount, converted by molar mass. One block for each compound: values may come before it.

Legend:
hERG (KCNH2) [1] = target: T1, hERG (KCNH2) (Homo sapiens, UniProt Q12809); assay: Inhibition of human ERG expressed in CHO cells at 10 uM at -70mV holding potential measured after 300 secs by IonWorks electrophysiology method relative to control; assay type: cell-based; conditions: CHO cells expressing human ERG
[2] = Stability in human liver microsomes at 1 uM pretreated for 10 mins followed by NADPH addition after 60 mins by LC/MS analysis relative to hepatic blood flow; assay type: ADME, microsome; conditions: read-out: Stability
[3] = target: T2, Arachidonate 5-lipoxygenase-activating protein (Homo sapiens, UniProt P20292); assay: Inhibition of FLAP in calcimycin-stimulated human whole blood assessed as reduction in LTB4 production pretreated for 15 mins followed by calcimycin addition after 30 mins by ELISA
T2 sequence (P20292 whole entry): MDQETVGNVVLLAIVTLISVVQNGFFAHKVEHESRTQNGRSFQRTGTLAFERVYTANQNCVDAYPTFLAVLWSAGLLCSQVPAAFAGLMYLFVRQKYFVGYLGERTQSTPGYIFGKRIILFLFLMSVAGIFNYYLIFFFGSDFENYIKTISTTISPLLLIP

[4] = Clearance in human hepatocytes at 1 uM measured after 1 hr by LC/MS analysis relative to hepatic blood flow; assay type: ADME, cell-based, Hepatocyte
[5] = target: T2, Arachidonate 5-lipoxygenase-activating protein; assay: Displacement of [125I]-L-691831 from human FLAP expressed in Sf9 cell membranes after 2 hrs by Topcount method
hERG (KCNH2) [6] = target: T1, hERG (KCNH2); assay: Inhibition of human ERG expressed in HEK293 cells at 37 uM by whole-cell patch clamp method relative to control; assay type: cell-based; conditions: HEK293 cells expressing human ERG
hERG (KCNH2) [7] = target: T1, hERG (KCNH2); assay: Inhibition of human ERG expressed in CHO cells at 21 uM at -70mV holding potential measured after 300 secs by IonWorks electrophysiology method relative to control; assay type: cell-based; conditions: CHO cells expressing human ERG
hERG (KCNH2) [8] = target: T1, hERG (KCNH2); assay: Inhibition of human ERG expressed in CHO cells at 17 uM at -70mV holding potential measured after 300 secs by IonWorks electrophysiology method relative to control; assay type: cell-based; conditions: CHO cells expressing human ERG
[9] = Aqueous kinetic solubility of the compound at pH 7.4; assay type: physicochemical; conditions: for solubility kinetic: aqueous, read-out: Kinetic_solubility; for Kinetic_solubility: buffer
[10] = target: T3, Arachidonate 5-lipoxygenase-activating protein (Homo sapiens) (UniProt P20292); assay: Ratio of IC50 for FLAP in calcimycin-stimulated human whole blood to IC50 for displacement of [125I]-L-691831 from human FLAP expressed in Sf9 cell membranes
T3 sequence (whole entry): T2 sequence (P20292 whole entry)

hERG (KCNH2) [11] = target: T1, hERG (KCNH2); assay: Inhibition of human ERG expressed in CHO cells at 12 uM at -70mV holding potential measured after 300 secs by IonWorks electrophysiology method relative to control; assay type: cell-based; conditions: CHO cells expressing human ERG
hERG (KCNH2) [12] = target: T1, hERG (KCNH2); assay: Inhibition of human ERG expressed in CHO cells at 13 uM at -70mV holding potential measured after 300 secs by IonWorks electrophysiology method relative to control; assay type: cell-based; conditions: CHO cells expressing human ERG
[13] = Aqueous equilibrium solubility in citric acid/disodium phosphate buffer at pH 6.8 at 1 uM after 24 hrs by HPLC method; assay type: physicochemical; conditions: for solubility thermodynamic at 24 h, 1 µM: citric acid/disodium phosphate buffer, pH 6.8
hERG (KCNH2) [14] = target: T1, hERG (KCNH2); assay: Inhibition of human ERG expressed in CHO cells at 42 uM at -70mV holding potential measured after 300 secs by IonWorks electrophysiology method relative to control; assay type: cell-based; conditions: CHO cells expressing human ERG
hERG (KCNH2) [15] = target: T1, hERG (KCNH2); assay: Inhibition of human ERG expressed in CHO cells at 41 uM at -70mV holding potential measured after 300 secs by IonWorks electrophysiology method relative to control; assay type: cell-based; conditions: CHO cells expressing human ERG
hERG (KCNH2) [16] = target: T1, hERG (KCNH2); assay: Inhibition of human ERG expressed in CHO cells at 33 uM at -70mV holding potential measured after 300 secs by IonWorks electrophysiology method relative to control; assay type: cell-based; conditions: CHO cells expressing human ERG
hERG (KCNH2) [17] = target: T1, hERG (KCNH2); assay: Inhibition of human ERG expressed in CHO cells at 16 uM at -70mV holding potential measured after 300 secs by IonWorks electrophysiology method relative to control; assay type: cell-based; conditions: CHO cells expressing human ERG
[18] = Volume of distribution at steady state in Wistar rat at 1 mg/kg, iv by HPLC-MS/MS analysis; assay type: ADME, organism-based; conditions: in vivo, read-out: Vdss
[19] = Mean residence time in Wistar rat at 1 mg/kg, iv by HPLC-MS/MS analysis; assay type: ADME, organism-based; conditions: in vivo
Rattus norvegicus [20] = assay: Clearance in Wistar rat at 1 mg/kg, iv by HPLC-MS/MS analysis relative to hepatic blood flow; assay type: ADME, organism-based; conditions: in vivo
hERG (KCNH2) [21] = target: T1, hERG (KCNH2); assay: Inhibition of human ERG expressed in CHO cells at 34 uM at -70mV holding potential measured after 300 secs by IonWorks electrophysiology method relative to control; assay type: cell-based; conditions: CHO cells expressing human ERG
hERG (KCNH2) [22] = target: T1, hERG (KCNH2); assay: Inhibition of human ERG expressed in HEK293 cells at 34 uM by whole-cell patch clamp method relative to control; assay type: cell-based; conditions: HEK293 cells expressing human ERG
[23] = Oral bioavailability in Wistar rat at 3 mg/kg by HPLC-MS/MS analysis; assay type: ADME, organism-based; conditions: in vivo
hERG (KCNH2) [24] = target: T1, hERG (KCNH2); assay: Inhibition of human ERG expressed in HEK293 cells at 30 uM by whole-cell patch clamp method relative to control; assay type: cell-based; conditions: HEK293 cells expressing human ERG
[25] = Mean residence time in Sprague-Dawley rat at 1 mg/kg, iv by HPLC-MS/MS analysis; assay type: ADME, organism-based; conditions: in vivo
[26] = Oral bioavailability in Sprague-Dawley rat at 3 mg/kg by HPLC-MS/MS analysis; assay type: ADME, organism-based; conditions: in vivo
Rattus norvegicus [27] = assay: Clearance in Sprague-Dawley rat at 1 mg/kg, iv by HPLC-MS/MS analysis relative to hepatic blood flow; assay type: ADME, organism-based; conditions: in vivo
[28] = Volume of distribution at steady state in Sprague-Dawley rat at 1 mg/kg, iv by HPLC-MS/MS analysis; assay type: ADME, organism-based; conditions: in vivo, read-out: Vdss
hERG (KCNH2) [29] = target: T1, hERG (KCNH2); assay: Inhibition of human ERG expressed in CHO cells at 9 uM at -70mV holding potential measured after 300 secs by IonWorks electrophysiology method relative to control; assay type: cell-based; conditions: CHO cells expressing human ERG

T1 sequence (Q12809 whole entry): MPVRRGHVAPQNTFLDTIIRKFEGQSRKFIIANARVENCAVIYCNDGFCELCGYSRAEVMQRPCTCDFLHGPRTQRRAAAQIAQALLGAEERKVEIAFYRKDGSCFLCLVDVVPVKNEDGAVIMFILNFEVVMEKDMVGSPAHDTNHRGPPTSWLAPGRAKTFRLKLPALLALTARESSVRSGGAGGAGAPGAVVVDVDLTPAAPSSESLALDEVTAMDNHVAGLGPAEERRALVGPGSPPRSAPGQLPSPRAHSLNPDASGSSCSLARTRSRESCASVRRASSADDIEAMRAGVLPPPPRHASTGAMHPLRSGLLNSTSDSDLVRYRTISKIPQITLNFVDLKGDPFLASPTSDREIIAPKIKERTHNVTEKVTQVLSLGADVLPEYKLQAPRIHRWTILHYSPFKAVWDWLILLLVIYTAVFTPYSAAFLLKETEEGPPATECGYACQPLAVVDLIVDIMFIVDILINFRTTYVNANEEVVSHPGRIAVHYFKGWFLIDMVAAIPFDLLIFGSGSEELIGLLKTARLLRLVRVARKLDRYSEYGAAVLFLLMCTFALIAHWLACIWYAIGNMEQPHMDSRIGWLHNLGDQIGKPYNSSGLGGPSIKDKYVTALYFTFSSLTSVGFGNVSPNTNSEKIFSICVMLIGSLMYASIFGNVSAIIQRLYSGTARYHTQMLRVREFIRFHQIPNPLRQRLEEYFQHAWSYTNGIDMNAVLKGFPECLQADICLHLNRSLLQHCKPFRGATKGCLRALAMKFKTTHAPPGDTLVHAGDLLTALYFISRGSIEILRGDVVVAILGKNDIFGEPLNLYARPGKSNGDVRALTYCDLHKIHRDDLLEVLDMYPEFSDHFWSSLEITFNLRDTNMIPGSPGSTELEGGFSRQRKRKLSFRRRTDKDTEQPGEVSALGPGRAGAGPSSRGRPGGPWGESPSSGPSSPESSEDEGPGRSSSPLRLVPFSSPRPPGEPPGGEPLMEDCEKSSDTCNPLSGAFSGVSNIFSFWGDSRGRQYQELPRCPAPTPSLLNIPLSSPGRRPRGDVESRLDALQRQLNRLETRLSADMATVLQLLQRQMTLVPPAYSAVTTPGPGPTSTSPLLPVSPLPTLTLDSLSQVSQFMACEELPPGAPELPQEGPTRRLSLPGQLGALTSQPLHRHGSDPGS

SMILES: CC(C)[C@](C)(c1ccc(-c2cnc(N)nc2)nc1)c1noc(-c2cnn(CC#N)c2)n1
hepatic extraction ratio at 1 h, 1 µM [2]: < 0.24
IC50 [3]: 0.04 µM
hepatic extraction ratio at 1 h, 1 µM [4]: 0.31
inhibition at 37 µM (hERG (KCNH2) [6]): 38%
IC50 [5]: 0.023 µM

SMILES: Nc1ncc(-c2ccc(C3(c4noc(N5CCC(O)CC5)n4)CCC3)cc2)cn1
inhibition at 5 min, 17 µM (hERG (KCNH2) [8]): 40%
solubility kinetic [9]: > 39 µg/mL
hepatic extraction ratio at 1 h, 1 µM [2]: < 0.24
Ratio IC50 [10]: 7
IC50 [3]: 0.118 µM

SMILES: CC(C)(O)Cn1cc(-c2nc([C@@](C)(c3ccc(-c4cnc(N)nc4)nc3)C3CC3)no2)cn1
solubility thermodynamic at 24 h, 1 µM [13]: 26 µg/mL (≈ 58.2 µM)
inhibition at 5 min, 42 µM (hERG (KCNH2) [14]): 34%
Kinetic_solubility [9]: Soluble

SMILES: Nc1ncc(-c2ccc(C3(c4noc(N5CCCCC5)n4)CCC3)cc2)cn1
solubility kinetic [9]: 4.1 µg/mL (≈ 10.9 µM)
Ratio IC50 [10]: 59
IC50 [3]: 0.387 µM
inhibition at 5 min, 33 µM (hERG (KCNH2) [16]): 92%

SMILES: CC1(O)CCN(c2nc(C3(c4ccc(-c5cnc(N)nc5)cc4)CCC3)no2)CC1
inhibition at 5 min, 16 µM (hERG (KCNH2) [17]): 45%
solubility kinetic [9]: > 40 µg/mL
hepatic extraction ratio at 1 h, 1 µM [2]: 0.29
IC50 [3]: 0.087 µM
IC50 [5]: 0.017 µM

SMILES: CC(C)[C@](C)(c1ccc(-c2cnc(N)nc2)nc1)c1noc(-c2cnn(C3COC3)c2)n1
solubility thermodynamic at 24 h, 1 µM [13]: 84 µg/mL (≈ 194 µM)
inhibition at 30 µM (hERG (KCNH2) [24]): 24%
Kinetic_solubility [9]: Soluble
hepatic extraction ratio at 1 h, 1 µM [2]: < 0.3
IC50 [3]: 0.037 µM
hepatic extraction ratio at 1 h, 1 µM [4]: 0.34
IC50 [5]: 0.0066 µM

SMILES: CC(C)[C@](C)(c1ccc(-c2cnc(N)nc2)nc1)c1noc(-c2cnn(CC(C)(C)O)c2)n1
solubility thermodynamic at 24 h, 1 µM [13]: 210 µg/mL (≈ 468 µM)
MRT [25]: 4.6 h
inhibition at 30 µM (hERG (KCNH2) [24]): 21%
bioavailability [26]: 114%
CL (Rattus norvegicus [27]): 10%
Kinetic_solubility [9]: Soluble
hepatic extraction ratio at 1 h, 1 µM [2]: < 0.3
IC50 [3]: 0.041 µM
hepatic extraction ratio at 1 h, 1 µM [4]: 0.3
Vd [28]: 2 L/kg
IC50 [5]: 0.013 µM

Continued, in another order:

hepatic extraction ratio at 1 h, 1 µM [2]: < 0.3
IC50 [3]: 0.026 µM
hepatic extraction ratio at 1 h, 1 µM [4]: 0.59
IC50 [5]: 0.003 µM
SMILES: Cn1cc(-c2nc([C@@](C)(c3ccc(-c4cnc(N)nc4)nc3)C3CC3)no2)cn1
inhibition at 5 min, 10 µM (hERG (KCNH2) [1]): 13%

hepatic extraction ratio at 1 h, 1 µM [2]: 0.58
IC50 [3]: 0.013 µM
IC50 [5]: 0.0056 µM
SMILES: CC1(O)CCN(c2nc([C@@](C)(c3ccc(-c4cnc(N)nc4)cc3)C3CC3)no2)CC1
inhibition at 5 min, 21 µM (hERG (KCNH2) [7]): 31%

solubility kinetic [9]: > 36 µg/mL
hepatic extraction ratio at 1 h, 1 µM [2]: < 0.24
Ratio IC50 [10]: 2
IC50 [3]: 0.315 µM
IC50 [5]: 0.16 µM
SMILES: Nc1ncc(-c2ccc(C3(c4noc(N5CC(O)C5)n4)CCC3)cc2)cn1
inhibition at 5 min, 12 µM (hERG (KCNH2) [11]): 18%

solubility kinetic [9]: 14 µg/mL (≈ 34.4 µM)
hepatic extraction ratio at 1 h, 1 µM [2]: 0.36
IC50 [3]: 0.173 µM
IC50 [5]: 0.046 µM
SMILES: Nc1ncc(-c2ccc(C3(c4noc(N5CCC(CO)CC5)n4)CCC3)cc2)cn1
inhibition at 5 min, 13 µM (hERG (KCNH2) [12]): 68%

IC50 [3]: 0.324 µM
IC50 [5]: 0.434 µM
SMILES: C[C@@](c1ccc(-c2cnc(N)nc2)nc1)(c1noc(N2CCC(O)CC2)n1)C1CC1
inhibition at 5 min, 41 µM (hERG (KCNH2) [15]): 17%

solubility thermodynamic at 24 h, 1 µM [13]: 111 µg/mL (≈ 273 µM)
Vd [18]: 1.6 L/kg
MRT [19]: 1.6 h
CL (Rattus norvegicus [20]): 33%
bioavailability [23]: 75%
SMILES: C[C@@](c1ccc(-c2cnc(N)nc2)cc1)(c1noc(N2CCC(O)CC2)n1)C1CC1
inhibition at 5 min, 34 µM (hERG (KCNH2) [21]): 30%
inhibition at 34 µM (hERG (KCNH2) [22]): 30%

solubility ([13]; buffer, pH 6.8, 24 h, 1 µM): Soluble
Kinetic_solubility [9]: Soluble
hepatic extraction ratio at 1 h, 1 µM [2]: 0.34
IC50 [3]: 0.092 µM
IC50 [5]: 0.029 µM
SMILES: CN(c1cnn(C)c1)c1nc([C@@](C)(c2ccc(-c3cnc(N)nc3)cc2)C2CC2)no1
inhibition at 5 min, 9 µM (hERG (KCNH2) [29]): 45%
